How the values were obtained:
[1] = Emitted dose and fine particle mass by Anderson Cascade Impactor stack; type: physicochemical; details: salmeterol xinafoate in HFA 134a, 25 μg per actuation, 10% w/w surfactant compound, aluminum canisters; beginning of use; mean of two determinations
Experimental: Data were obtained at the beginning of use of the device. Salmeterol xinafoate formulations in HFA 134a, of strength 25 μg per actuation, and 10% w/w (relative to drug) of the relevant surfactant compound of formula (I) were prepared in standard aluminum canisters. Control 1 was prepared at the same time as samples containing examples 2, 5, 6 and 7 whereas control 2 was prepared separately. The analysis of aerosol formulations using such stacks is well known to person skilled in the art. The results are presented as the mean of two determinations.
These samples also show an increase in the absolute value of the FPM fraction in most cases.

[2] = Mean particle size of salmeterol xinafoate/HFA 134a suspension by image analysis (Galai CIS-100 particle size analyser); type: physicochemical; details: for Mean Length: salmeterol xinafoate in HFA 134a, 25 μg per actuation, 10% w/w (relative to drug) of surfactant compound, crimped glass bottles, equivalent diameter, average of 4 determinations; for spread of the range of particles size: salmeterol xinafoate in HFA 134a with 10% w/w surfactant compound, versus control without surfactant
Experimental: Salmeterol xinafoate formulations in HFA 134a, of strength 25 μg per actuation, and 10% w/w (relative to drug) of the relevant surfactant compound of formula (I) were prepared in crimped glass bottles using salmeterol xinafoate (8.7 mg), HFA 134a (18 g) and the relevant compound (0.87 mg). The control was prepared without the addition of a surfactant. […] In this measurement, particle size is represented as the equivalent diameter of a circle of equal area to the object. The mean is the average of 4 determinations. The particle size measurement was obtained by transferring the suspensions to a pressurised cell, and video-imaging the sample under shear via a microscope objective. The equivalent diameter is defined as the diameter of a circle of equal area to the object.
The mean equivalent diameter can be weighted by number, length or volume. e.g. For three particles with equivalent diameters of x, y and z:
This is seen by the marked reduction in average particle size (“mean length”) when a compound of formula (I) is incorporated into the formulation. Futhermore the spread of the range of particles size was reduced in some cases (especially Examples 5 and 7).

| % FPM [1] | FPM (fine particle mass, sum of stages 3 to 5) [1] | Total Dose Emitted [1] | Total Emitted Ex-Device [1] | Mean Length [2] | spread of the range of particles size [2] | Compound |
| --- | --- | --- | --- | --- | --- | --- |
| 38.8% | 8.7 µg | 22.4 µg | 18.8 µg | 27.1 μm | – | COCCOCCOCCOCCOCCOCCOCC(=O)O [Example 2, 2,5,8,11,14,17,20-Heptaoxadocosan-22-oic acid] |
| 37.2% | 8.6 µg | 23.0 µg | 19.4 µg | 23.8 μm | reduced | O=C(O)COCCOCCOCCOCCOCCOCCOCC(F)(F)F [Example 5, 23,23,23-Trifluoro-3,6,9,12,15,18,21-heptaoxatricosan-1-oic acid] |
| 33.2% | 7.1 µg | 21.4 µg | 17.9 µg | 23.7 μm | – | O=C(O)COCCOCCOCC(F)(F)F [Example 6, {[2-({2-[(2,2,2-Trifluoroethyl)oxy]ethyl}oxy)ethyl]oxy}acetic acid] |
| 38.7% | 8.5 µg | 21.9 µg | 18.4 µg | 28.6 μm | reduced | COCCOCCOCCOCCOCCOCCOCCOCCOCCOCC(=O)O [Example 7, 2,5,8,11,14,17,20,23,26,29-Decaoxahentriacontan-31-oic acid] |
